Data: patent US9399647B2, “Proteasome activity modulating compounds” (Proteostasis Therapeutics, Inc., priority 2012, dated 2016)

Biological target: USP14 (Homo sapiens, UniProt P54578)
Test: USP14 inhibition assay
Assay type: biochemical
Details: average value from three experimental determinations; reported as potency bands; read-out: IC50 (USP14 inhibition)
From the text: The IC50 values in the Table below represent the average value from three experimental determinations.
These IC50 values represent the average value from three experimental determinations.

USP14, sequence (P54578 whole entry): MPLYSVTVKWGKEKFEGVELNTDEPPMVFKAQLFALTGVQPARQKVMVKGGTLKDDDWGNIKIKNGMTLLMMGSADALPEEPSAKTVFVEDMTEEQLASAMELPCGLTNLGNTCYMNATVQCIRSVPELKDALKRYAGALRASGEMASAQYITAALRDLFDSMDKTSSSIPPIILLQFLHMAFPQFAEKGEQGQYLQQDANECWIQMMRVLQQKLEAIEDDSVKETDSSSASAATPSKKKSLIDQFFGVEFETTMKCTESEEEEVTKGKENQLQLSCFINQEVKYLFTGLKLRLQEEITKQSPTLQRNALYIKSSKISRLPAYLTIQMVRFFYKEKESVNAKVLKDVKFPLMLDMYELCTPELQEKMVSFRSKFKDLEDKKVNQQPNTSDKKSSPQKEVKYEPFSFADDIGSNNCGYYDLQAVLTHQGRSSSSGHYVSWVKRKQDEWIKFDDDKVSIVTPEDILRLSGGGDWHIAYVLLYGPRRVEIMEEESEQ
USP14, sequence (Q13200 whole entry partner): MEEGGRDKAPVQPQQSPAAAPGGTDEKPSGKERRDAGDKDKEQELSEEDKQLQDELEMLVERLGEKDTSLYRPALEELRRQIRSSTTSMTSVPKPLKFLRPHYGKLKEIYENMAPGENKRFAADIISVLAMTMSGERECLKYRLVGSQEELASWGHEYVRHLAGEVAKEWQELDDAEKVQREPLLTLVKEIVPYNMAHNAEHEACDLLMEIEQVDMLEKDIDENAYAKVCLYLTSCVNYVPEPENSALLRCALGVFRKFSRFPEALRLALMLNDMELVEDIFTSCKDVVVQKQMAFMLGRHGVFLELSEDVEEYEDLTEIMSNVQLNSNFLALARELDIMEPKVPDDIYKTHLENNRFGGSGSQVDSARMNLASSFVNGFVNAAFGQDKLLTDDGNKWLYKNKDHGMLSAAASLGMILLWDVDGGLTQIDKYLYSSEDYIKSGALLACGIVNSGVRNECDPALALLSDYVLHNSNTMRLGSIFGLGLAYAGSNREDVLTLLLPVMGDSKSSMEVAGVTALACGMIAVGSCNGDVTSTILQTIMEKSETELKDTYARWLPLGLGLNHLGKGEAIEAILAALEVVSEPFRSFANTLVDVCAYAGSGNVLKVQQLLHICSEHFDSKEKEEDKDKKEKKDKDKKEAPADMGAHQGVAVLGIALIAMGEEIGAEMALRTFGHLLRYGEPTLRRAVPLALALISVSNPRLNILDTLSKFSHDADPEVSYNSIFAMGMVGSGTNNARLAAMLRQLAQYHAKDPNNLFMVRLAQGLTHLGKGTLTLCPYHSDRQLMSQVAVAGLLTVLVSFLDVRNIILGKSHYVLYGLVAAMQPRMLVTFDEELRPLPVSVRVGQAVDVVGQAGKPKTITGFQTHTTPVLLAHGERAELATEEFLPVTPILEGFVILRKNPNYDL
USP14, sequence (P35998 whole entry partner): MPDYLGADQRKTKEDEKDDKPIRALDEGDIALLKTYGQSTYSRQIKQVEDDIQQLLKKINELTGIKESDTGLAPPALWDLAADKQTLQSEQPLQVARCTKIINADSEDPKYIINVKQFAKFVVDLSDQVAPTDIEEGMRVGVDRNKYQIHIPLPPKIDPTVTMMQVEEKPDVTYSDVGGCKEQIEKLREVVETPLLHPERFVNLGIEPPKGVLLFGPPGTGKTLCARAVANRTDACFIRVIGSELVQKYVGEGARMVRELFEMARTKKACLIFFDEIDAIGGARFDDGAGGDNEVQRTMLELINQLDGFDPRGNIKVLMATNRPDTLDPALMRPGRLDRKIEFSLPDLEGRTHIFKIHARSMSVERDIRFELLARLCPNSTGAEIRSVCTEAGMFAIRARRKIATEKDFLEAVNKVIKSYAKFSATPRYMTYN

Row | IC50 [nM] | Structure (SMILES)
1 | < 1000 | CN(c1nc(CC(=O)N2CCC(C(N)=O)CC2)nc2sc3c(c12)CCCC3)C1CC1 [Compound 31, 1-{2-[4-(Cyclopropyl-methyl-amino)-5,6,7,8-tetrahydro-benzo[4,5]thieno[2,3-d]pyrimidin-2-yl]-acetyl}-piperidine-4-carboxylic acid amide]
2 | < 1000 | CN(c1nc(CC(=O)N2CCC(N3CCOCC3)CC2)nc2sc3c(c12)CCCC3)C1CC1 [Compound 32, 2-[4-(Cyclopropyl-methyl-amino)-5,6,7,8-tetrahydro-benzo[4,5]thieno[2,3-d]pyrimidin-2-yl]-1-(4-morpholin-4-yl-piperidin-1-yl)-ethanone]
3 | < 1000 | CN(c1nc(CC(=O)N2CCCC(O)C2)nc2sc3c(c12)CCCC3)C1CC1 (stereo not drawn) [Compound 33, 2-[4-(Cyclopropyl-methyl-amino)-5,6,7,8-tetrahydro-benzo[4,5]thieno[2,3-d]pyrimidin-2-yl]-1-(3-hydroxy-piperidin-1-yl)-ethanone]
4 | 1000 to 5000 | CCNC(=O)Cc1nc(N(C)C2CC2)c2c3c(sc2n1)CCCC3 [Compound 34, 2-[4-(Cyclopropyl-methyl-amino)-5,67,8-tetrahydro-benzo[4,5]thieno[2,3-d]pyrimidin-2-yl]-N-ethyl-acetamide]
5 | 1000 to 5000 | CN(c1nc(CC(=O)NCCC(C)(C)O)nc2sc3c(c12)CCCC3)C1CC1 [Compound 35, 2-[4-(Cyclopropyl-methyl-amino)-5,6,7,8-tetrahydro-benzo[4,5]thieno[2,3-d]pyrimidin-2-yl]-N-(3-hydroxy-3-methyl-butyl)-acetamide]
6 | < 1000 | CN(c1nc(CC(=O)N2CCC(CO)C2)nc2sc3c(c12)CCCC3)C1CC1 (stereo not drawn) [Compound 36, 2-[4-(Cyclopropyl-methyl-amino)-5,6,7,8-tetrahydro-benzo[4,5]thieno[2,3-d]pyrimidin-2-yl]-1-(3-hydroxymethyl-pyrrolidin-1-yl)-ethanone]
7 | < 1000 | CN(c1nc(CC(=O)N2CC[C@@H](C(C)(C)O)C2)nc2sc3c(c12)CCCC3)C1CC1 [Compound 37, 2-[4-(Cyclopropyl-methyl-amino)-5,6,7,8-tetrahydro-benzo[4,5]thieno[2,3-d]pyrimidin-2-yl]-1-[(R)-3-(1-hydroxy-1-methyl-ethyl)-pyrrolidin-1-yl]-ethanone]
8 | < 1000 | CN(c1nc(CC(=O)N2CCCC2C(N)=O)nc2sc3c(c12)CCCC3)C1CC1 (stereo not drawn) [Compound 38, 1-(2-(4-(Cyclopropyl(methyl)amino)-5,6,7,8-tetrahydrobenzo[4,5]thieno[2,3-d]pyrimidin-2-yl)acetyl)pyrrolidine-2-carboxamide]
9 | < 1000 | CN(c1nc(CC(=O)N2CCCC2CO)nc2sc3c(c12)CCCC3)C1CC1 (stereo not drawn) [Compound 39, 2-[4-(Cyclopropyl-methyl-amino)-5,6,7,8-tetrahydro-benzo[4,5]thieno[2,3-d]pyrimidin-2-yl]-1-(2-hydroxymethyl-pyrrolidin-1-yl)-ethanone]
10 | > 5000 | CCOC(=O)Cc1nc(N(C)CC)c2c3c(sc2n1)CCCC3 [Compound 40, [4-(Ethyl-methyl-amino)-5,6,7,8-tetrahydro-benzo[4,5]thieno[2,3-d]pyrimidin-2-yl]-acetic acid ethyl ester]
11 | > 5000 | CCOC(=O)Cc1nc(N(C)C(C)C)c2c3c(sc2n1)CCCC3 [Compound 41, [4-(Isopropyl-methyl-amino)-5,6,7,8-tetrahydro-benzo[4,5]thieno[2,3-d]pyrimidin-2-yl]-acetic acid ethyl ester]
12 | > 5000 | CN(C)C(=O)Cc1nc(N2CCCC2)c2c3c(sc2n1)CCCC3 [Compound 42, N,N-Dimethyl-2-(4-pyrrolidin-1-yl-5,6,7,8-tetrahydro-benzo[4,5]thieno[2,3-d]pyrimidin-2-yl)-acetamide]
13 | 1000 to 5000 | CN(C)C(=O)Cc1nc(N(C)C)c2c3c(sc2n1)CCCC3 [Compound 43, 2-(4-Dimethylamino-5,6,7,8-tetrahydro-benzo[4,5]thieno[2,3-d]pyrimidin-2-yl)-N,N-dimethyl-acetamide]
14 | > 5000 | CN(C)C(=O)Cc1nc(N2CCC2)c2c3c(sc2n1)CCCC3 [Compound 44, 2-(4-(Azetidin-1-yl)-5,6,7,8-tetrahydrobenzo[4,5]thieno[2,3-d]pyrimidin-2-yl)-N,N-dimethylacetamide]
15 | > 5000 | CCN(C)c1nc(CC(=O)O)nc2sc3c(c12)CCCC3 [Compound 45, [4-(Ethyl-methyl-amino)-5,6,7,8-tetrahydro-benzo[4,5]thieno[2,3-d]pyrimidin-2-yl]-acetic acid]
16 | > 5000 | CC(C)N(C)c1nc(CC(=O)O)nc2sc3c(c12)CCCC3 [Compound 46, [4-(Isopropyl-methyl-amino)-5,6,7,8-tetrahydro-benzo[4,5]thieno[2,3-d]pyrimidin-2-yl]-acetic acid]
17 | 1000 to 5000 | CN(c1nc(CCC(=O)O)nc2sc3c(c12)CCCC3)C1CC1 [Compound 47, 3-[4-(Cyclopropyl-methyl-amino)-5,6,7,8-tetrahydro-[1]benzothiopheno[2,3-d]pyrimidin-2-yl]-propionic acid]
18 | 1000 to 5000 | CN(C)C(=O)CCc1nc(N(C)C2CC2)c2c3c(sc2n1)CCCC3 [Compound 48, 3-[4-(Cyclopropyl-methyl-amino)-5,6,7,8-tetrahydro-[1]benzothiopheno[2,3-d]pyrimidin-2-yl]-N,N-dimethyl-propionamide]
19 | 1000 to 5000 | CN(c1nc(CO)nc2sc3c(c12)CCCC3)C1CC1 [Compound 49, [4-(Cyclopropyl-methyl-amino)-5,6,7,8-tetrahydro-benzo[4,5]thieno[2,3-d]pyrimidin-2-yl]-methanol]
20 | > 5000 | CN(c1nc(COc2cccnc2)nc2sc3c(c12)CCCC3)C1CC1 [Compound 50, Cyclopropyl-methyl-[2-(pyridine-3-yloxymethyl)-5,6,7,8-tetrahydro-benzo[4,5]thieno[2,3-d]pyrimidin-4-yl]-amine]
21 | 1000 to 5000 | CN(c1nc(CC(=O)C(F)(F)F)nc2sc3c(c12)CCCC3)C1CC1 [Compound 51, 3-[4-(Cyclopropyl-methyl-amino)-5,6,7,8-tetrahydrobenzo[4,5]thieno[2,3-d]pyrimidin-2-yl]-1,1,1-trifluoro-propan-2-one]
22 | > 5000 | CN(c1nc(CC(=O)O)nc2sc3c(c12)CCCCC3)C1CC1 [Compound 52, [4-(Cyclopropyl-methyl-amino)-6,7,8,9-tetrahydro-5H-10-thia-1,3-diazabenz[a]azulen-2-yl]-acetic acid]
23 | 1000 to 5000 | CN(C)C(=O)Cc1nc(N(C)C2CC2)c2c3c(sc2n1)CCCCC3 [Compound 53, 2-[4-(Cyclopropyl-methyl-amino)-6,7,8,9-tetrahydro-5H-10-thia-1,3-diaza-benz[a]azulen-2-yl]-N,N-dimethyl-acetamide]

Row | Structure (SMILES) | IC50 [nM]
24 | CN(c1nc(CC(=O)N2CC[C@@H](N(C)C)C2)nc2sc3c(c12)CCCC3)C1CC1 [Compound 30, 2-[4-(Cyclopropyl-methyl-amino)-5,6,7,8-tetrahydro-benzo[4,5]thieno[2,3-d]pyrimidin-2-yl]-1-((R)-3-dimethylamino-pyrrolidin-1-yl)-ethanone] | < 1000
